Reference: ChEMBL document CHEMBL2429819, “Synthesis, antibacterial screening, and POM analyses of novel bis-isoxazolyl/pyrazolyl-1,3-diols” (2013)
Activity calls are given as the source filed them. No cut-off for these calls is given here.

Assays:
Assay type in all cases: functional
Details in all cases: for zone of inhibition at 100 µg/mL: read-out: DIZ
[1] = system: Proteus vulgaris; assay: Antibacterial activity against Proteus vulgaris at 100 ug/ml after 24 hrs
[2] = system: Bacillus subtilis; assay: Antibacterial activity against Bacillus subtilis at 100 ug/ml after 24 hrs
[3] = system: Muscodor albus; assay: Antibacterial activity against Muscodor albus at 100 ug/ml after 24 hrs
[4] = system: Escherichia coli; assay: Antibacterial activity against Escherichia coli at 100 ug/ml after 24 hrs

SMILES	zone of inhibition at 100 µg/mL [1] [mm]	zone of inhibition at 100 µg/mL [2] [mm]	diameter of the inhibition zone (DIZ) [3]	zone of inhibition at 100 µg/mL [4] [mm]	zone of inhibition at 100 µg/mL [3] [mm]	diameter of the inhibition zone (DIZ) [1]	diameter of the inhibition zone (DIZ) [4]	diameter of the inhibition zone (DIZ) [2]
Cc1ccc(-c2cc(-c3cc(-c4cc(-c5ccc(C)cc5)[nH]n4)c(O)cc3O)n[nH]2)cc1	15.7	12.4	inactive	14.7				
O=C(CC(=O)c1cc(C(=O)CC(=O)c2ccccc2)c(O)cc1O)c1ccccc1	13.3	15.8		12.4	15.2			
Oc1cc(O)c(-c2cc(-c3cccs3)on2)cc1-c1cc(-c2cccs2)on1		13.2		12.5	16	inactive		
COc1ccc(-c2cc(-c3cc(-c4cc(-c5ccc(OC)cc5)on4)c(O)cc3O)no2)cc1	15.4	16.5		14.3	15.9			
O=C(CC(=O)c1cc(C(=O)CC(=O)c2ccc(Cl)cc2)c(O)cc1O)c1ccc(Cl)cc1	11	13.2			15		inactive	
COc1ccc(C(=O)CC(=O)c2cc(C(=O)CC(=O)c3ccc(OC)cc3)c(O)cc2O)cc1		14.9		11.4	16.1	inactive		
Oc1cc(O)c(-c2cc(-c3cccs3)[nH]n2)cc1-c1cc(-c2cccs2)[nH]n1	15.3			15.4	11.7			inactive
O=C(CC(=O)c1cc(C(=O)CC(=O)c2cccs2)c(O)cc1O)c1cccs1	14.9	15.5		15.5	14.9			
Oc1cc(O)c(-c2cc(-c3ccccc3)[nH]n2)cc1-c1cc(-c2ccccc2)[nH]n1	15.2	12.2		15.2	14			
O=C(CC(=O)c1cc(C(=O)CC(=O)c2cccnc2)c(O)cc1O)c1cccnc1	14.2	11.9		16.4	15.7			
Oc1cc(O)c(-c2cc(-c3cccnc3)[nH]n2)cc1-c1cc(-c2cccnc2)[nH]n1	15.4	14.2		15.2	15.3			
Oc1cc(O)c(-c2cc(-c3ccc(Cl)cc3)on2)cc1-c1cc(-c2ccc(Cl)cc2)on1	13.2	13.7		12.7	15			
Oc1cc(O)c(-c2cc(-c3cccnc3)on2)cc1-c1cc(-c2cccnc2)on1	11.9	15.8		12.4	16.1			
Oc1cc(O)c(-c2cc(-c3ccccc3)on2)cc1-c1cc(-c2ccccc2)on1	15.2	11.2	inactive	17				
CC[C@H]1OC(=O)[C@H](C)[C@@H](O[C@H]2C[C@@](C)(OC)[C@@H](O)[C@H](C)O2)[C@H](C)[C@@H](O[C@@H]2O[C@H](C)C[C@H](N(C)C)[C@H]2O)[C@](C)(O)C[C@@H](C)C(=O)[C@H](C)[C@@H](O)[C@]1(C)O [ERYTHROMYCIN]	25.1	27.1		27.4	26.1			
COc1ccc(-c2cc(-c3cc(-c4cc(-c5ccc(OC)cc5)[nH]n4)c(O)cc3O)n[nH]2)cc1		15.5		12.1	14.4	inactive		
NC[C@@H]1O[C@H](O[C@H]2[C@@H](O)[C@H](O[C@@H]3[C@@H](O)[C@H](N)C[C@H](N)[C@H]3O[C@H]3O[C@H](CN)[C@@H](O)[C@H](O)[C@H]3N)O[C@@H]2CO)[C@H](N)[C@@H](O)[C@@H]1O [FRAMYCETIN]	25.3	26.1		26.1	25.8			
Cc1ccc(C(=O)CC(=O)c2cc(C(=O)CC(=O)c3ccc(C)cc3)c(O)cc2O)cc1	12.6	16.2		13.8	13.1			
Cc1ccc(-c2cc(-c3cc(-c4cc(-c5ccc(C)cc5)on4)c(O)cc3O)no2)cc1	11.4	12.7			14.7		inactive	
Oc1cc(O)c(-c2cc(-c3ccc(Cl)cc3)[nH]n2)cc1-c1cc(-c2ccc(Cl)cc2)[nH]n1	15.7	16.2		15	15.7			
